Experimental data from US20240101664A1, “TREATMENT OF PERITONEAL, PLEURAL, AND PERICARDIUM ADHESIONS” (UTI LIMITED PARTNERSHIP, priority 2020, published 2024).

What was measured:
[1] = test system: Gata6+ cavity macrophages; test: Open-pouch intravital microscopy: cavity macrophage recruitment/aggregation at transmesothelial laser injury; format: in vivo, mouse; details: for number of macrophages attaching/aggregating at the injury (normalized macrophage count): 30 min post transmesothelial laser injury, intraperitoneal treatment 20 min before
Procedure: The following neutralizing antibodies (versus isotype controls) and reagents were intraperitoneally tested for their effect on macrophage recruitment: anti-mouse CD18 (100 μg per mouse, GAME-46, BD Pharmingen)+anti-mouse CD29 (100 μg per mouse, HM β31-1, BD Pharmingen) versus isotype rat IgG1, κ (100 μg per mouse, BioXcell)+hamster IgG (100 μg per mouse, eBioscience); anti-mouse CD162 (100 μg per mouse, 4RA10, BD Pharmingen) versus isotype rat IgG1 (100 μg per mouse, eBioscience); anti-human CD9 (10 μg per mouse, ALB 6, Santa Cruz) versus isotype mouse IgG1 (BD Biosciences). Heparin (Sandoz) was diluted in sterile saline to reach final dose of 100-1000 U per mouse. Argatroban (Sigma-Aldrich) was dissolved in DMSO at 20 mg/ml and diluted with saline to reach a final concentration of 300 μg per mouse. Hirudin (Multiplate Hirudin Blood Tube, Roche) was dissolved in saline and injected intraperitoneally at a dose of 1 tube per mouse. Polyinosinic acid (poly(I)) and polycytidylic acid (poly(C)) were purchased as potassium salt (Sigma-Aldrich) and dissolved in double-distilled water according to manufacturer's instructions to 5 mg/ml and 20 mg/ml, respectively. Immediately before experiments, the poly(C) stock solution was diluted with double-distilled water to a final concentration of 5 mg/ml. Both poly(I) and poly(C) were then diluted with saline to reach a final dose of 250 μg per mouse. A total of […] Anti-mouse Marco antibody (ED31, Biorad MCA1849) versus rat IgG1 Isotype control (eBRG1, eBioscience 16-4301-85) was injected intraperitoneally in a total volume of 140 μl PBS per mouse. A volume of 100 μl anti-mouse thrombocyte depletion serum (Cedarlane, CLAD31440) versus normal rabbit serum (Cedarlane, CLSD403) was injected intra venously 24 hours before imaging.
Mice used for IVM were 8-10 weeks old weighted an average of 20 g. Mice in each experiment were of the same sex. If not specified otherwise, mice were generally treated pharmacologically or with neutralizing antibodies 20 min before imaging. Mice were anesthetized with a mixture of ketamine hydrochloride (200 mg/kg, Rogar/SBT) and xylazine hydrochloride (10 mg/kg, MTC Pharmaceuticals). After anesthesia, the tail vein was cannulated for administration of additional anesthetic, antibodies, or other reagents in certain experiments.
The pouch model IVM (FIG. 1) was prepared with the mouse in supine position. Thermal support was given with a heated stage to maintain 37° C. body temperature. The fur and skin above the ventral abdominal wall were aseptically cleaned with 70% ethanol and then removed. Care was taken not to open the peritoneal cavity. If the peritoneal cavity was accidentally opened, the mouse was immediately euthanized. Staining antibody or dye was intraperitoneally injected with a 28G needle in midline about 10 mm above the symphysis. After withdrawing the needle, a suture was placed to seal the hole caused by the injection. This suture was then used to immobilize a part of the peritoneum onto the coverslip. For this, the mouse was placed in a semi-prone position. Placing a cotton tip with slight top to bottom pressure helped to further increase imaging stability yet preserved a connection between the imaging pouch and peritoneal cavity so that peritoneal fluid movement was preserved. The closed pouch was prepared by applying more pressure on the cotton tip which allowed us to separate the pouch from the peritoneal cavity in terms of fluid movement. After IVM, all mice were immediately euthanized.
Images were exported as uncompressed .tif files and analyzed using ImageJ (55). Tracking was generally performed in an automated fashion using the TrackMate plugin (56). The cell shown in FIG. 1J was tracked manually. Cell counts and injury size was measured manually in ImageJ. Three-dimensional visualizations and volume quantifications were performed in Imaris software. […]

[2] = test system: macrophage disappearance reaction; details: intraperitoneal administration; hypersensitivity reaction or Escherichia coli; cited from earlier work
[3] = test system: peritoneal cavity macrophages; test: Aggregometry of isolated peritoneal macrophages; format: cell-based, mouse; details: 37° C., 400 rpm
Procedure: Macrophages were isolated by peritoneal lavage as described above with the use of 2 mM EDTA containing HBSS instead of PBS. Macrophages were centrifuged at 300 g for 5 min in a 50-ml polystyrene tube. The pellet (with approximately 100 μl of fluid remaining with 3×10^6 cells) was diluted in HBSS containing 2 mM Ca^2+ to a final volume of 400 μl. It was then transferred to a aggregometry cuvette, which was warmed to 37° C. and continuously stirred (400 rpm). Light transmission was recorded on a 700 Whole Blood/Optical Lumi-Aggregometer (Chrono-log) and was expressed in arbitrary units with buffer representing 100% transmission and washed macrophage suspension 0% transmission, respectively. Agonists and calcium were added to reach a Ca^2+ concentration of 4 mM total or 2 mM free calcium in a buffer containing 2 mM EDTA. The preparation of platelet aggregometry was performed as previously described (53). Washed platelets (50 μl with 5×10^5 platelets per microliter) were diluted into 110 μl of Tyrode-HEPES buffer containing 2 mM Ca^2+ and 100 μg/ml human fibrinogen. Agonists (ATP, thrombospondin) were added at the indicated concentrations to the continuously stirred platelet suspension. Murine neutrophils were isolated from the bone marrow of wild-type C57Bl/6, mice as previously described (46). Briefly, bone marrow was collected from the femurs and tibias of euthanized mice, and neutrophils were isolated using a discontinuous Percoll gradient consisting of a Percoll solution (9 ml of Percoll and 1 ml 10× of HBSS) diluted to 72%, 64%, and 52% in 1×HBSS. Following centrifugation, the neutrophil band was removed and washed in HBSS. Cell pellets were resuspended in HBSS containing either 2 mM Ca2^+ or EDTA. Aggregometry was performed as described above.

[4] = test system: focal thermal injury of the parietal peritoneum; test: Peritoneal focal thermal injury healing; format: in vivo, mouse; details: 3 days after injury; wound area and mesothelial coverage; poly(C) control
Procedure: Abdominal-wall-flap IVM was used to visualize the mesothelium and epigastric blood vessels (FIG. 2A, FIG. 3, F-I). Mice were placed in supine position on heated stage to maintain 37° C. body temperature. The fur and skin above the ventral abdominal wall were removed and then aseptically cleaned with 70% ethanol. Staining antibodies (anti-mouse podoplanin and anti-mouse F4/80 as described above) were injected. After mice were incubated for 10 min on a heated stage, the peritoneum was incised with an inverted U-shaped incision ranging from directly below the xyphoid process to the inguinal ligament on both sides. This created a perfused flap of peritoneum and the rectus abdominis muscles. The flap was washed with 1 ml of PBS and placed directly on the glass coverslip of the heated stage for imaging of abdominal wall or epigastric blood vessels.
(§1) For surgical procedures, mice were 8-12 weeks old with a body weight >20 g. Mice in each experiment were of the same sex. Mice were treated before surgery with poly(I), poly(C), liposomes, or diphtheria toxin as described above. Anesthesia was induced and maintained with isoflurane. Eye lubricant was topically applied and buprenorphine (0.1 mg/kg) was subcutaneously administered.
The peritoneal focal thermal injury was adapted from the focal thermal liver injury that was previously described (46). The skin was incised in midline. […]

[5] = test system: focal thermal lesions of liver; test: Focal thermal hepatic injury healing; format: in vivo, mouse; details: 7 d after injury
Procedure: Intravital liver imaging was performed as previously described (45). Exposed tissues were visualized with a Leica SP8 DIVE inverted microscope equipped with 4 Tune, a tunable in vivo detection system and a multiphoton light path. All images shown here were acquired using a HC FLUOTAR L 25×/0.95 W objective with water as immersion medium and 2× digital zoom. Fluorescent moieties were excited with a tunable InSight ×3 ultrafast laser (Spectra-Physics) at 800-1000 nm. Signal was detected using external, extremely sensitive non-descanned hybrid detectors. Second harmonic generation by collagen was recorded by tuning the detector to excitation wavelength divided by two ±20 nm. Leica LAS X software was used to drive the microscope.
as §1
Focal thermal injury in the liver was performed as previously described (49). In brief, a mini-laparotomy was made just below the xyphoid to expose the liver. Three focal injuries were induced on the surface of the liver using the tip of a heated 30G needle mounted on an electrocautery device. […]

peritoneal adhesions = test: Peritoneal-button injury model of post-surgical peritoneal adhesions; format: in vivo, mouse
Procedure: as §1
For the peritoneal button injuries, skin was incised in midline. The peritoneal cavity was accessed through midline laparotomy. Standardized lesions were induced as previously described (47). In brief, a small portion of the peritoneum was grasped and ligated at its base using 4-0 Prolene suture (Ethicon), creating a standardized peritoneal button. This was repeated for a total of four buttons, one in each quadrant. Finally, peritoneum and skin were sutured with 6-0 Prolene (Ethicon) running suture.
Prior to sacrifice, mice were anesthetized (10 mg/kg xylazine hydrochloride and 200 mg/kg ketamine hydrochloride). Laparotomies were performed in an inverted U-shape. Adhesion were scored based on their tensile strength and vascularization (Table 2) as previously described (51). The animal was subsequently euthanized and perfused with 2 mM EDTA and 4% PFA containing PBS. Peritoneal buttons/adhesions were excised and post-fixated in 4% PFA containing PBS for 2-4 hours. Tissue staining and clearing was performed as previously described (52). […] Then the biopsies were incubated with fluorescently conjugated monoclonal antibodies for 1-4 days at 4° C. on a rotation device. […] Signal was detected using external, non-descanned hybrid detectors. Second harmonic generation by collagen was recorded by tuning the detector to excitation wavelength divided by two ±20 nm. […]
Mouse peritoneal lavage was performed in anesthetized animals by injection and aspiration of three times 5 ml of sterile ice-cold PBS containing 2 mM EDTA into the peritoneal cavity and subsequent retrieval. […] Samples were run using BD FACS Canto flow cytometer and analyzed using FlowJo software (Tree Star). […]

[6] = test system: cells isolated from abdominal cavity (peritoneal fluid sample); test: Aggregometry of human peritoneal fluid cells; format: cell-based; details: ATPgs 100 uM, CaCl 2 mM, Poly(I)/Poly(C) 2 mg/ml; phase contrast
Procedure: Cells were isolated from abdominal cavity by laparotomy or laparascopy, lavaged with 200 ml saline and stored on ice. The cell samples were transferred through 70 um filters into 50 ml falcon tubes and spun at 300 g for 5 min at 4 degree. The pellet was resuspended in HBSS without Ca and without Mg. For aggregometry cells were exposed to: EDTA final concentration 2 mM; ATPgs final concentration 100 uM; CaCl final concentration 2 mM; and Poly(I)/Poly(C) final concentration 2 mg/ml. The final volume of 100 uL was attained with HBSS. Cells from one patient were exposed to three different conditions: EDTA alone (negative control); ATP/Poly(C); ATP/Poly(I). Image with phase contrast was captured (FIG. 14).

[7] = intravital imaging following poly(I) administration

Compound: Heparin
- number of macrophages attaching/aggregating at the injury (normalized macrophage count) [1]: significantly reduced the number of attaching cells
- macrophage disappearance reaction [2]: inhibit the macrophage disappearance reaction

Compound: CC1CNc2c(cccc2S(=O)(=O)N[C@@H](CCCNC(=N)N)C(=O)N2CC[C@@H](C)C[C@@H]2C(=O)O)C1 (some centres unmarked) [argatroban, Argatroban]
- number of macrophages attaching/aggregating at the injury (normalized macrophage count) [1]: did not replicate this effect

Compound: Hirudin
- number of macrophages attaching/aggregating at the injury (normalized macrophage count) [1]: did not replicate this effect

Compound: Polyinosinic acid [poly(I)]
- number of macrophages attaching/aggregating at the injury (normalized macrophage count) [1]: significantly decreased macrophage aggregation
- initial adhesion to the wound [1, 7]: left relatively intact
- macrophage-macrophage aggregate formation over time [1, 7]: significant decrease
- macrophage aggregation in vitro [3]: prevent macrophage aggregation in vitro
- healing of focal thermal injury of the parietal peritoneum [4]: prolonged healing
- healing of focal thermal lesions of liver [5]: similarly affected
- reduction of cavity macrophage numbers in the peritoneal lavage after surgery (peritoneal adhesions; 3 hours post-surgery, flow cytometry): only partially inhibited
- recruitment of cavity macrophage aggregates from the peritoneal fluid to the buttons (peritoneal adhesions; within 3 hours post-surgery): could be reduced
- number and tenacity of peritoneal adhesions (peritoneal adhesions; within 7 days post-surgery): significantly reduced
- aggregates of human peritoneal fluid cells [6]: no aggregates

Compound: Polycytidylic acid [Poly(C)]
- aggregates of human peritoneal fluid cells [6]: large aggregate observed

Compound: Nc1ncnc2c1ncn2[C@@H]1O[C@H](COP(=O)(O)OP(=O)(O)OP(=O)(O)O)[C@@H](O)[C@H]1O [adenosine triphosphate]
- macrophage aggregation in vitro [3]: accelerate macrophage aggregation

Compound: O=C(O)CN(CCN(CC(=O)O)CC(=O)O)CC(=O)O [EDTA]
- macrophage aggregation in vitro [3]: inhibited
